# What was measured:
# [1] = tested on: Puccinia recondita f. sp. tritici (the causal agent of wheat leaf rust); assay: Test C: preventive spray on wheat seedlings, wheat leaf rust, visual disease rating; assay type: in vivo; details: wheat seedlings
# Source text: (§1) General protocol for preparing test suspensions for Tests A-D: the test compounds were first dissolved in acetone in an amount equal to 3% of the final volume and then suspended at the desired concentration (in ppm) in acetone and purified water (50/50 mix by volume) containing 250 ppm of the surfactant PEG400 (polyhydric alcohol esters). The resulting test suspensions were then used in Tests A-D.
# (§2) The test suspension was sprayed to the point of run-off on wheat seedlings. The following day the seedlings were inoculated with a spore suspension of Puccinia recondita f. sp. tritici; (the causal agent of wheat leaf rust) and incubated in a saturated atmosphere at 20° C. for 24 h, and then moved to a growth chamber at 20° C. for 6 days, after which time visual disease ratings were made.
# (§3) The test results for Tests A-C presented in Table A below for compounds of Formula 1 illustrate the fungicidal activity of component (a) contributing to the plant disease control utility of compositions comprising component (a) in combination with component (b) according to the present invention. In the Table, a rating of 100 indicates 100% disease control and a rating of 0 indicates no disease control (relative to the controls). A dash (-) indicates the compound was not tested. The test suspensions were sprayed at the concentration listed in the column “Rate in ppm”, unless otherwise indicated. An asterisk “*” next to the rating indicates a 250 ppm test suspension was used, a double asterisk “**” next to the rating indicates a 100 ppm test suspension was used, and a triple asterisk “***” next to the rating indicates a 50 ppm test suspension was used.
# [2] = tested on: Phakopsora pachyrhizi (the causal agent of Asian soybean rust); assay: Test A: preventive spray on soybean seedlings, Asian soybean rust, visual disease rating; assay type: in vivo; details: soybean seedlings
# Source text: as §1
# as §2, with “soybean” for “wheat”, “Phakopsora pachyrhizi” for “Puccinia recondita f. sp. tritici;”, “Asian soybean” for “wheat leaf”, “22°” for “20°”, “h” for “h,”, “8” for “6”
# as §3
# [3] = test suspension 10 ppm, 100 = 100% disease control, 0 = no control
SMILES,Test C disease control rating ([1]; test suspension 10 ppm) [%],"Test A disease control rating [2, 3] [%]",Test C disease control rating ([1]; test suspension 50 ppm) [%],Test A disease control rating ([2]; test suspension 50 ppm) [%]
O=c1ccc2ccccc2n1Cc1ccc(-c2noc(C(F)(F)F)n2)cc1 [compound 157],100,100,–,–
FC(F)(F)c1nc(-c2ccc(CN3Cc4ccccc4C3)cc2)no1 [compound 160],98,99,–,–
C=C(Br)COC(=O)c1cnn(Cc2ccc(-c3noc(C(F)(F)F)n3)cc2)c1 [compound 167],100,100,–,–
C=CC(F)(F)OC(=O)c1cnn(Cc2ccc(-c3noc(C(F)(F)F)n3)cc2)c1 [compound 168],100,100,–,–
CC(C)=CCOC(=O)c1cnn(Cc2ccc(-c3noc(C(F)(F)F)n3)cc2)c1 [compound 169],99,100,–,–
COC(=O)C1(NC(=O)c2cnn(Cc3ccc(-c4noc(C(F)(F)F)n4)cc3)c2)CC1 [compound 172],99,100,–,–
N#CC1(NC(=O)c2cnn(Cc3ccc(-c4noc(C(F)(F)F)n4)cc3)c2)CC1 [compound 173],96,100,–,–
CCOC(=O)c1nn(Cc2ccc(-c3noc(C(F)(F)F)n3)cc2)c(C(=O)OCC)c1C(=O)OCC [compound 174],91,85,–,–
Cc1cc(C(=O)O)nn1Cc1ccc(-c2noc(C(F)(F)F)n2)cc1 [compound 179],9,98,–,–
Cc1cc(C(=O)OC(=O)C(F)(F)F)nn1Cc1ccc(-c2noc(C(F)(F)F)n2)cc1 [compound 180],0,97,–,–
Cc1cc(C(=O)NCC#N)nn1Cc1ccc(-c2noc(C(F)(F)F)n2)cc1 [compound 181],100,100,–,–
Cc1cc(C(=O)N(C)C)nn1Cc1ccc(-c2noc(C(F)(F)F)n2)cc1 [compound 182],100,100,–,–
Cc1cc(C(=O)OCC#N)nn1Cc1ccc(-c2noc(C(F)(F)F)n2)cc1 [compound 184],55,100,–,–
Cc1cc(C(=O)OCC#N)nn1Cc1ccc(-c2noc(C(F)(F)F)n2)cc1 [compound 185],98,100,–,–
C=CCOC(=O)c1cc(C)n(Cc2ccc(-c3noc(C(F)(F)F)n3)cc2)n1 [compound 186],74,100,–,–
CCOC(=O)c1cc(C(C)(C)C)n(Cc2ccc(-c3noc(C(F)(F)F)n3)cc2)n1 [compound 187],0,0,–,–
N#Cc1cnn(Cc2ccc(-c3noc(C(F)(F)F)n3)s2)c1 [compound 189],–,–,100,100
C#CCOC(=O)c1cnn(Cc2ccc(-c3noc(C(F)(F)F)n3)s2)c1 [compound 190],100,100,–,–
N#Cc1ccc2c(cnn2Cc2ccc(-c3noc(C(F)(F)F)n3)s2)c1 [compound 194],100,100,–,–
COc1ccc2c(cnn2Cc2ccc(-c3noc(C(F)(F)F)n3)s2)c1 [compound 195],98,100,–,–
FC(F)(F)c1nc(-c2ccc(Cn3ccc4ccccc43)s2)no1 [compound 196],93,100,–,–

SMILES,Test C disease control rating ([1]; test suspension 10 ppm) [%],"Test A disease control rating [2, 3] [%]",Test C disease control rating ([1]; test suspension 50 ppm) [%],Test A disease control rating ([2]; test suspension 50 ppm) [%]
O=Cc1cnn(Cc2ccc(-c3noc(C(F)(F)F)n3)s2)c1 [compound 197],98,99,–,–
C=CCOC(=O)c1cnn(Cc2ccc(-c3noc(C(F)(F)F)n3)s2)c1 [compound 199],100,100,–,–
CC(C)OC(=O)c1cnn(Cc2ccc(-c3noc(C(F)(F)F)n3)s2)c1 [compound 200],100,100,–,–
N#CC(C#N)NC(=O)c1coc(Cc2ccc(-c3noc(C(F)(F)F)n3)cc2)n1 [compound 203],86,100,–,–
C[Si](C)(C)CCNC(=O)c1coc(Cc2ccc(-c3noc(C(F)(F)F)n3)cc2)n1 [compound 206],68,98,–,–
O=C(c1csc(Cc2ccc(-c3noc(C(F)(F)F)n3)cc2)n1)N1CCC(F)(F)C1 [compound 207],86,100,–,–
O=C(NCC=C(Cl)Cl)c1csc(Cc2ccc(-c3noc(C(F)(F)F)n3)cc2)n1 [compound 208],86,100,–,–
CC(COC(=O)c1cnn(Cc2ccc(-c3noc(C(F)(F)F)n3)cc2)c1)=NOC1CCCCO1 (stereo not drawn) [compound 218],98,100,–,–
CCCCON=C(C)COC(=O)c1cnn(Cc2ccc(-c3noc(C(F)(F)F)n3)cc2)c1 [compound 219],86,100,–,–
CC(COC(=O)c1cnn(Cc2ccc(-c3noc(C(F)(F)F)n3)cc2)c1)=NOC(C)(C)C [compound 220],86,100,–,–
CCON=C(C)COC(=O)c1cnn(Cc2ccc(-c3noc(C(F)(F)F)n3)cc2)c1 [compound 221],95,100,–,–
CC(COC(=O)c1cnn(Cc2ccc(-c3noc(C(F)(F)F)n3)cc2)c1)=NOC(C)C [compound 222],97,100,–,–
CC(COC(=O)c1cnn(Cc2ccc(-c3noc(C(F)(F)F)n3)cc2)c1)=NO [compound 223],91,100,–,–
CCOC(=O)c1cnn(CSCc2ccc(-c3noc(C(F)(F)F)n3)cc2)c1 [compound 241],100,100,–,–
CCOC(=O)c1cnn(C[S+]([O-])Cc2ccc(-c3noc(C(F)(F)F)n3)cc2)c1 (stereo not drawn) [compound 242],99,100,–,–
CCOC(=O)c1cnn(CS(=O)(=O)Cc2ccc(-c3noc(C(F)(F)F)n3)cc2)c1 [compound 243],85,98,–,–
O=C(COC(=O)c1cnn(Cc2ccc(-c3noc(C(F)(F)F)n3)cc2)c1)c1ccccc1 [compound 244],95,100,–,–
CON=C(COC(=O)c1cnn(Cc2ccc(-c3noc(C(F)(F)F)n3)cc2)c1)c1ccccc1 [compound 245],86,100,–,–
CCOC(=O)c1cnn(C(C)c2ccc(-c3noc(C(F)(F)F)n3)s2)c1 (stereo not drawn) [compound 246],100,100,–,–
CCOC(=O)c1cnn(C(C)c2ccc(-c3noc(C(F)(F)F)n3)s2)c1 (stereo not drawn) [compound 247],100,100,–,–
CCCOC(=O)c1cnn(C(C)c2ccc(-c3noc(C(F)(F)F)n3)s2)c1 (stereo not drawn) [compound 248],100,100,–,–
